Experimental data published in patent EP1870419A2, “Modulators of beta-amyloid peptide aggregation comprising D-amino acids” (Praecis Pharmaceuticals Incorporated, priority 1999, dated 2000).

What was measured:
Aβ1-40 = target: T1, Aβ1-40 (Homo sapiens, UniProt P05067); assay: Nucleation assay (turbidity at 405 nm, change in lag time); type: biochemical; conditions: for Nucleation assay data 0.3 µM / Nucleation assay data 1 µM / Nucleation assay data 3 µM: Table II; for Nucleation assay Δlag 1.25 µM / Nucleation assay Δlag 5 µM / Nucleation assay Δlag […]: Table I
T1 construct: first Aβ1-40 peptide is dissolved in HFIP
T1 sequence (P05067 672-711): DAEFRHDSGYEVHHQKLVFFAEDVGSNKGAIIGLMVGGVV
Source text: The nucleation assay is employed to determine the ability of test compounds to alter (e.g. inhibit) the early events in formation of β-AP fibers from monomeric β-AP. Characteristic of a nucleated polymerization mechanism, a lag time is observed prior to nucleation, after which the peptide rapidly forms fibers as reflected in a linear rise in turbidity. The time delay before polymerization of β-AP monomer can be quantified as well as the extent of formation of insoluble fiber by light scattering (turbidity). Polymerization reaches equilibrium when the maximum turbidity reaches a plateau. The turbidity of a solution of natural β-AP in the absence or presence of various concentrations of a β-amyloid modulator compound is determined by measuring the apparent absorbance of the solution at 405nm (A405 nm) over time. The threshold of sensitivity for the measurement of turbidity is in the range of 15-20 µM β-AP. […] This assay can be performed using stirring or shaking to accelerate polymerization, thereby increasing the speed of the assay. Moreover the assay can be adapted to a 96-well plate format to screen multiple compounds.
To perform the nucleation assay, first Aβ1-40 peptide is dissolved in HFIP (1,1,1,3,3,3-Hexafluoro-2-propanol; Aldrich 10,522-8) at a concentration of 2 mg peptide/ml and incubated at room temperature for 30 min. HFIP-solubilized peptide is sonicated in a waterbath sonicator for 5 min at highest setting, then evaporated to dryness under a stream of argon. The peptide film is resuspended in anhydrous dimethylsulfoxide (DMSO) at a concentration of 6.9 mg/ml (25x concentration), sonicated for 5 min as before, then filtered through a 0.2 micron nylon syringe filter (VWR cat. No. 28196-050). Test compounds are dissolved in DMSO at a 100x concentration. Four volumes of 25x Aβ1-40 peptide in DMSO are combined with one volume of test compound in DMSO in a glass vial, and mixed to produce a 1:1 molar ratio of Aβ peptide to test compound. For different molar ratios, test compounds are diluted with DMSO prior to addition to Aβ1-40, in order to keep the final DMSO and Aβ1-40 concentrations constant. […] Ten microliters of the mixture is then added to the bottom of a well of a Coming Costar ultra low binding 96-well plate (Corning Costar, Cambridge MA; cat. No. 2500). Ninety microliters of water is added to the well, the plate is shaken on a rotary shaken at a constant speed at room temperature for 30 seconds, an additional 100 µl of 2x PTL buffer (20 mM NaH2PO4, 300 mM NaCl, pH 7.4) is added to the well, the plate is reshaken for 30 seconds and a baseline (t=0) turbidity reading is taken by measuring the apparent absorbance at 405 nm using a Bio-Rad Model 450 Microplate Reader. The plate is then returned to the shaker and shaken continuously for 5 hours. Turbidity readings are taken at 15 minute intervals.
β-amyloid aggregation in the absence of any modulators results in enhanced turbidity of the natural β-AP solution (i.e., an increase in the apparent absorbance at 405 nm over time).

PC12 cells = assay: Neurotoxicity assay (MTT viability), PC-12 cells; type: cell-based, rat; conditions: aged (5 day or 8 day) aggregates, 48 hours, read-out: EC50 for toxicity
Source text: (§1) The neurotoxicity of natural β-amyloid peptide aggregates, in either the presence or absence of a β-amyloid modulator, can be tested in a cell-based assay using either a rat or human neuronally-derived cell line (PC-12 cells or NT-2 cells, respectively) and the viability indicator […]-tetrazolium bromide (MTT). (See e.g., Shearman, M.S. et al. (1994) Proc. Natl. Acad. Sci. USA 91:1470-1474; Hansen, M.B. et al. (1989) J Immun. Methods 119:203-210 for a description of similar cell-based viability assays). PC-12 is a rat adrenal pheochromocytoma cell line and is available from the American Type Culture Collection, Rockville, MD (ATCC CRL 1721). MTT (commercially available from Sigma Chemical Co.) is a chromogenic substrate that is converted from yellow to blue in viable cells, which can be detected spectrophotometrically. […]

NT2 cells = assay: Neurotoxicity assay (MTT viability), NT-2 cells; type: cell-based, human; conditions: aged (5 day or 8 day) aggregates, 48 hours, read-out: EC50 for toxicity
Source text: as §1

[1] = 0.3 µM test compound, 5 µM Aβ1-40, ΔLag, ratio to control lag time
[2] = 1 µM test compound, 5 µM Aβ1-40, ΔLag, ratio to control lag time
[3] = 3 µM test compound, 5 µM Aβ1-40, ΔLag, ratio to control lag time
[4] = 1.25 µM test compound, 5 µM Aβ1-40, ratio to control lag time
[5] = 5 µM test compound, 5 µM Aβ1-40, ratio of lag time with compound to lag time of control
[6] = […] test compound, 5 µM Aβ1-40, ratio to control lag time
[7] = rows marked *: measured at 0.6 µM of compound
[8] = rows marked *: measured at 1.25 µM of compound
[9] = rows marked *: measured at […] of compound

Row | Substance | Nucleation assay Δlag 1.25 µM (Aβ1-40; [4]) | Nucleation assay Δlag 5 µM (Aβ1-40; [5]) | Nucleation assay Δlag […] (Aβ1-40; [6]) | also measured
1 | TFA·H-(lf-[F5]f-vl)-NH2 [PPI-1320] | – | – | – | Nucleation assay data 0.3 µM (Aβ1-40; [1]): 1; Nucleation assay data 1 µM (Aβ1-40; [2]): 3; Nucleation assay data 3 µM (Aβ1-40; [3]): >5
2 | aged Aβ1-40 aggregates: Aβ1-40 peptide solution incubated at 37 °C for eight days to allow fibrils to form | – | – | – | EC50 (PC12 cells): 1000 to 2000 nM; EC50 (NT2 cells): 1000 to 2000 nM
3 | TFA·H-(lvffa)-isopropylamide [PPI-992] | 1 | 3 | 1 | –
4 | TFA·H-(Glvffl)-NH2 [PPI-1013] | – | – | – | Nucleation assay Δlag 1.25 µM (Aβ1-40; rows marked #: measured at 0.6 µM of compound): 2; Nucleation assay Δlag […] (Aβ1-40; rows marked #: measured at 1.25 µM of compound): >3; Nucleation assay Δlag 5 µM (Aβ1-40; rows marked #: measured at […] of compound): 2
5 | TFA·H-(lf-[p-F]f-vl)-NH2 [PPI-1319] | – | – | – | Nucleation assay data 0.3 µM (Aβ1-40; [1]): 1; Nucleation assay data 1 µM (Aβ1-40; [2]): >5; Nucleation assay data 3 µM (Aβ1-40; [3]): >5
6 | TFA·N,N-diethyl-(Gaffvl)-NH2 [PPI-1005] | 1 | 3 | 3 | –
7 | TFA·H-(lf-D-Cha-vl)-NH2 [PPI-1318] | – | – | – | Nucleation assay data 0.3 µM (Aβ1-40; [1]): 1; Nucleation assay data 1 µM (Aβ1-40; [2]): 2; Nucleation assay data 3 µM (Aβ1-40; [3]): >5
8 | TFA·N-ethyl-(Gaffvl)-NH2 [PPI-969] | 3 | >5 | >5 | –
9 | TFA·N,N-dimethyl-(Gaffvl)-NH2 [PPI-803] | <1 | <1 | <1 | –
10 | TFA·N-methyl-(Gaffvl)-NH2 [PPI-968] | 2 | >5 | >5 | –
11 | TFA·H-(lvffa)-dimethylamide [PPI-993] | 1 | 1 | 1 | –
12 | 2 TFA·H-lvf-NH-NH-fvl-H [PPI-1125] | – | – | – | Nucleation assay data 0.3 µM (Aβ1-40; [7]): 2.0; Nucleation assay data 1 µM (Aβ1-40; [8]): >2.5; Nucleation assay data 3 µM (Aβ1-40; [9]): >2.5
13 | TFA•N-methyl-(lvffl)-NH2 [PPI-1019] | – | – | – | Nucleation assay data 0.3 µM (Aβ1-40; [7]): 2.0; Nucleation assay data 1 µM (Aβ1-40; [8]): >2.5; Nucleation assay data 3 µM (Aβ1-40; [9]): >2.5
14 | 2TFA·H-(lfkvl)-NH2 [PPI-1321] | – | – | – | Nucleation assay data 0.3 µM (Aβ1-40; [1]): <1; Nucleation assay data 1 µM (Aβ1-40; [2]): <1; Nucleation assay data 3 µM (Aβ1-40; [3]): <1
15 | TFA·N-isopropyl-(Gaffvl)-NH2 [PPI-970] | 1 | >5 | >5 | –
16 | TFA·N,N-dimethyl-(affvl)-NH2 [PPI-913] | 1 | 1 | 1 | –
17 | TFA·N,N-diethyl-(affvl)-NH, [PPI-1006] | 1 | 1 | 1 | –
